Measurements taken from PMC11728142, “A Tachyplesin Antimicrobial Peptide from Theraphosidae Spiders with Potent Antifungal Activity Against Cryptococcus neoformans” (Microorganisms, 2024).
Converted amounts (≈) assume the structure as drawn. Positions of bridges follow the written chain, without caps; N, C: chain ends. Residues, ends and D or L forms follow the SMILES beside them.

What was measured:
Candida auris_55 = assay: microbe, parasite or virus in culture
Method: (§1) To achieve a final cell concentration of 2 × 10^6 CFU/mL, mid-log phase cultures were diluted with a Yeast and Mold (YM) broth and then put to 96-well plates with two-fold serially diluted peptides (from 0.1 to 89.8 µM) in a 1:1 ratio.

Candida auris_84 = assay: microbe, parasite or virus in culture
Method: as §1

[1] = system: Cryptococcus neoformans_ATCC32045; assay: microbe, parasite or virus in culture
Method: as §1

[2] = system: Candida albicans_ATCC10231; assay: microbe, parasite or virus in culture
Method: as §1

[3] = system: Cryptococcus neoformans_BNCC225501; assay: microbe, parasite or virus in culture
Method: as §1

trypsin = conditions: peptide 1 mg/mL, peptide:enzyme 250:1, 5 mM CaCl2, 50 mM Tris-HCl pH 7.4, 37 °C, time points 0 to 12 h, SDS-PAGE bands
Method: (§2) The mixture was heated for 10 min at 95 °C to halt enzymatic reaction. A solution of 20 µL of the SDS-PAGE loading buffer (5×) was added to 80 µL of the sample, mixed by vortexing and heated for 5 min at 95 °C. SDS-PAGE analysis was performed using Omni-PAGE™Precast HEPES-Tris Gels. LL37 and colistin antibiotics were used as controls.

chymotrypsin = conditions: peptide 1 mg/mL, peptide:enzyme 250:1, 5 mM CaCl2, 50 mM Tris-HCl pH 7.4, 37 °C, time points 0 to 12 h, SDS-PAGE bands
Method: as §2

[4] = In vivo acute toxicity test; conditions: mouse, in vivo, ip; mice, single intraperitoneal dose, observed up to 72 h
Method: (§3) The peptide was administered in decreasing dosages to the different groups of mice. The concentration was lowered after three repeats if death was immediate, and 6 mice were injected if no death occurred. Following injection, mice were examined visually for any indications of toxicity, and the times at which mice died were recorded at 12/24/48/60 and 72 h. The following signs were used to assess toxicity: hunched back, ruffled fur, poor motility, and total immobility resulting in death.

C57BL/6J male mice = assay: In vivo acute toxicity test
Method: as §3

[5] = system: C. neoformans BNCC225501 biofilms; assay: Two-photon laser scanning microscopy of biofilms, FDA/PI; assay type: cell-based, Cryptococcus neoformans; conditions: 0.5× to 8 × the MIC, 24 h at 37 °C
Method: Fluorescein diacetate (FDA) and Propidium iodide (PI) dyes were utilized to stain live and dead cells, respectively. The fungi were cultured in YPDA broth media at 37 °C to the mid-logarithmic phase. Fungal cells were centrifuged at 3500 rpm for 5 min and then washed thrice with normal saline (0.9% sodium chloride). The fungal suspension was diluted to 1 × 10^9 CFU/mL in YPDA broth media, and, then, 500 µL was added to wells in a 24-well plate. Incubation was performed for 24 h at 37 °C; then, wells were washed thrice with PBS. […] Normal saline was added to the negative control group. […] After incubation, the non-adherent cells were washed with PBS, 250 µL (10 µg/mL) of FDA dye (Solarbio, Beijing, China) was added to each well and left in the dark for 20 min, and, then, 250 µL (5 µg/mL) of PI dye (Solarbio, Beijing, China) was added and co-stained in the dark for 10 min. Microscopy observation was performed utilizing the TPLSM (A1MP+, Nikon, Tokyo, Japan) at 555 nm and 488 nm excitations for PI and FDA, respectively.

C. neoformans [6] = assay: Scanning and transmission electron microscopy; assay type: cell-based, Cryptococcus neoformans; conditions: 10× the MIC; 14 µM, 2 h at 37 °C
Method: C. neoformans were cultured in YPDA broth to mid-log phase and diluted with normal saline (0.9% sodium chloride) to 1 × 10^9 CFU/mL. The cultures were centrifuged at 3500 rpm for 5 min, and the supernatant was discarded. After three washes with normal saline, the fungal pellets were re-suspended in normal saline. […] At 2 h post-incubation, the suspensions were centrifuged at 3500 rpm for 5 min, the supernatant was aspirated, and the pellets were re-suspended/fixed in 1 mL of 2.5% glutaraldehyde. Fixation was performed overnight at 4 °C. Next, the samples were washed in normal saline and dehydrated in a graded series of ethanol (50%, 70%, 90%, and 100%). In the end, the pellets were placed on aluminum stubs, vacuum sputter-coated in gold, and the Hitachi S-3000N (Tokyo, Japan) SEM was used to examine the membrane morphology.
For transmission electron microscopy, the cells were cultured and harvested as described above. After dehydration, cells were embedded and stained for observation under transmission electron microscopy.

C. neoformans [7] = assay: Mice systemic infection model, fungal burden; assay type: in vivo, C57BL/6J female mice; conditions: immunocompromised mice, 8 × 10^6 CFU/mouse i.p., QS18 1, 2, 4 mg/kg i.p. 12 h after infection, read 12 h post-treatment, n = 4
Method: (§4) Mice systemic infection and the treatment model were performed to assess the dissemination of fungi to target organs as described by with little modifications. C57BL/6J female mice 20 ± 2 g were immunocompromised through the intraperitoneal injection of 150 mg/kg cyclophosphamide for four days prior to infection. C. neoformans was then cultured in YPDA broth media to mid-log phase. […] Fungal pellets were resuspended in the same buffer, and the optical density (OD) value was adjusted to 4 × 10^7 CFU/mL. A volume of 200 µL of the fungal solution was i.p. injected into immunocompromised mice (n = 4), a total of 8 × 10^6 colony-forming units (CFUs) injected per mouse. Twelve hours post-intraperitoneal inoculation of the fungi, treatment was administered. […] Twelve hours post-treatment, the mice were sacrificed, and blood was collected through retro-orbital bleeding. Organs (lung, liver, kidney, and spleen) were also harvested and divided into two parts. One portion was weighed and placed into a grinding tube with 1 mL of normal saline and then homogenized in a tissue grinder to assess the fungal burden, while fixation of the other portion was performed for the histopathology examination. Following a 5-fold serial dilution in normal saline, 100 µL of the homogenates were seeded on YPDA plates and incubated at 37 °C for 48 h before counting colonies.

[8] = system: TNF-α, IL-6, IL-1β, MCP-1; assay: Plasma cytokine levels of infected mice, ELISA; assay type: in vivo, C57BL/6J female mice; conditions: QS18 1, 2, 4 mg/kg i.p., n = 4
Method: as §4, with “One portion was weighed and placed into a grinding tube with 1 mL of normal saline and then homogenized in a tissue grinder to assess the fungal burden, while fixation of the other portion was performed for the histopathology examination. Following a 5-fold serial dilution in normal saline, 100 µL of the homogenates were seeded on YPDA plates and incubated at 37 °C for 48 h before counting colonies.” left out
Blood collected through retro-orbital bleeding was centrifuged for 25 min at 5000 rpm to isolate plasma. Following the manufacturer’s guidelines, standard enzyme-linked immunosorbent assay (ELISA) kits were used to quantify the cytokine levels of tumor necrosis factor-α (TNF-α), interleukin-6 (IL-6), interleukin--1β (IL-1β), and monocyte chemoattractant protein-1 (MCP-1) in the plasma.

[9] = system: C. neoformans BNCC225501 biofilm; assay: Biofilm eradication assay, crystal violet; assay type: cell-based, Cryptococcus neoformans
Method: Evaluation of the peptide’s ability to eradicate C. neoformans BNCC225501 biofilms was performed by culturing and harvesting the fungal cells as described in the biofilm inhibition assay above. Incubation of the fungal solution (1 × 10^6 CFU/mL in YPDA media) was conducted in 96-well plates for 48 h at 37 °C. […] Excess stain was washed off with PBS, and 95% ethanol (100 µL) was added. Using a microplate reader, absorbance was determined at 600 nm for quantification of the percentage of biofilm eradication.

C. neoformans [10] = assay: Membrane potential assay, DiSC3(5) dye; assay type: cell-based, Cryptococcus neoformans; conditions: 1×, 2×, 4× and 8× the MIC, up to 40 min, ex/em 622/670 nm
Method: An overnight culture of C. neoformans cells was washed thrice and re-suspended in the HEPES buffer (with 5 mM of HEPES, 20 mM of glucose and 0.1 M of KCl, pH 7.5) to achieve a cell density of 10^8 CFU/mL. The fungal suspension was then incubated with 10 µM of DiSC3(5) for 30 min at 37 °C in the dark. […] PBS was added as the negative control and amphotericin B as the positive control. The negative control PBS-treated wells were used to establish baseline fluorescence. Fluorescence intensity was measured and recorded over time for up to 40 min at excitation/emission wavelengths of 622/670 nm. An increase in fluorescence indicated membrane depolarization, which implies the disruption of membrane integrity.

C. neoformans [11] = assay: Histopathological examination of infected mice; assay type: in vivo, C57BL/6J female mice; conditions: 4 mg/kg i.p., lung, liver, spleen and kidney, 12 h post-treatment
Method: as §4, with “colonies. […]” for “colonies.”

C. neoformans [12] = conditions: then 4 × MIC on C. neoformans 1 × 10^6 CFU/mL, absorbance 595 nm
Method: Incubation of the mixture was performed for 3 h at 37 °C. A volume of 100 µL of fresh yeast extract peptone dextrose agar (YPDA) broth media was added to the mixture followed by a further 16 h of incubation. Included as negative controls were samples containing heat-inactivated protease with no peptide but media only. The inhibition of fungal growth was detected by measuring absorbance at 595 nm with a Synergy H1 Micro plate Reader (Bio-Tek, Winooski, VT, USA). The assays were performed in three replicates.

C. neoformans BNCC225501 = assay: Time-killing kinetics assay; assay type: cell-based, Cryptococcus neoformans
Method: C. neoformans fungi grown to mid-log phase was adjusted with normal saline to 1 × 10^5 CFU/mL. […] A volume of 10 µL of the sample was taken at each time point and diluted with sterile normal saline to 100-fold. A total of 100 µL of the dilution was seeded on YPDA media agar plates in three replicates for each concentration per time point. Plates were incubated for 18–24 h at 37 °C, and the number of viable colonies was determined to assess the rate of fungi growth.

[13] = broth microdilution, YM broth, 2 × 10^6 CFU/mL, 24 h at 37 °C, lowest concentration that fully inhibited growth

CC(C)[C@H](NC(=O)[C@H](CCCCN)NC(=O)[C@H](Cc1ccccc1)NC(=O)[C@H](CS)NC(=O)[C@@H](N)CCC(N)=O)C(=O)N[C@@H](CS)C(=O)N[C@@H](Cc1ccccc1)C(=O)N[C@@H](CCCNC(=N)N)C(=O)N[C@@H](CCCCN)C(=O)N[C@@H](CCCNC(=N)N)C(=O)N[C@@H](CS)C(=O)N[C@@H](Cc1ccccc1)C(=O)N[C@H](C(=O)N[C@@H](CCCCN)C(=O)N[C@@H](CS)C(=O)N[C@@H](CO)C(=O)N[C@@H](CCCNC(=N)N)C(=O)N[C@@H](CO)C(=O)O)[C@@H](C)O [QS18red] (H-QCFKVCFRKRCFTKCSRS-OH)
MIC (Candida auris_55; [13]): > 89.8 µM
MIC (Candida auris_84; [13]): 44.9 µM (≈ 100 µg/mL)
MIC [1, 13]: ≥ 89.8 µM
MIC [2, 13]: > 89.8 µM
MIC [3, 13]: 89.8 µM (≈ 200 µg/mL)
proteolytic stability with trypsin (trypsin): no bands observed even at t = 0 min
proteolytic stability with chymotrypsin (chymotrypsin): faint initial band that disappeared after 15 min

C[C@@H]1[C@H](O)[C@@H](C)/C=C/C=C/C=C/C=C/C=C/C=C/C=C/[C@H](O[C@@H]2O[C@H](C)[C@@H](O)[C@H](N)[C@@H]2O)C[C@@H]2O[C@](O)(C[C@@H](O)C[C@@H](O)[C@H](O)CC[C@@H](O)C[C@@H](O)CC(=O)O[C@H]1C)C[C@H](O)[C@H]2C(=O)O [Amphotericin B, amphotericin B, reference compound]
MIC (Candida auris_55; Candida, 24 h): 1.7 µM (≈ 1.57 µg/mL)
MIC (Candida auris_84; Candida, 24 h): 0.8 µM (≈ 0.739 µg/mL)
MIC ([1]; Cryptococcus, 24 h): 3.4 µM (≈ 3.14 µg/mL)
MIC ([2]; Candida, 24 h): ≤ 0.4 µM
MIC ([3]; Cryptococcus, 24 h): 1.7 µM (≈ 1.57 µg/mL)

CC(C)[C@@H]1NC(=O)[C@H](CCCCN)NC(=O)[C@H](Cc2ccccc2)NC(=O)[C@@H](NC(=O)[C@@H](N)CCC(N)=O)CSSC[C@@H](C(=O)N[C@@H](CO)C(=O)N[C@@H](CCCNC(=N)N)C(=O)N[C@@H](CO)C(N)=O)NC(=O)[C@H](CCCCN)NC(=O)[C@H]([C@@H](C)O)NC(=O)[C@H](Cc2ccccc2)NC(=O)[C@@H]2CSSC[C@H](NC1=O)C(=O)N[C@@H](Cc1ccccc1)C(=O)N[C@@H](CCCNC(=N)N)C(=O)N[C@@H](CCCCN)C(=O)N[C@@H](CCCNC(=N)N)C(=O)N2 [QS18] (H-QCFKVCFRKRCFTKCSRS-NH2; disulfide 2-15, 6-11; N-terminus and C-terminus assumed)
MIC times lower than that of fluconazole ([3]; oxidized QS18 compared with fluconazole): approximately fourteen
proteolytic stability with trypsin (trypsin): complete degradation after 1 h
proteolytic stability with chymotrypsin (chymotrypsin): remained stable in chymotrypsin even after 12 h of incubation
LD50 at 72 h [4]: 30 mg/kg
LD50 i.p. compared to intravenous administration (C57BL/6J male mice): two-fold
acute toxicity observation (C57BL/6J male mice; intravenous, 10 mg/kg, over 72 hours): no signs of toxicity or death
intravenous toxicity (C57BL/6J male mice; intravenous, 20 mg/kg and 40 mg/kg): lethal effect
viability of biofilm cells, PI/FDA fluorescence [5]: decreased dose-dependently
cell morphology by SEM and TEM (C. neoformans [6]): leaked cytoplasmic contents, as well as irregular cell morphology with shrunken cell surfaces
fungal burden (CFU) in lung, liver, kidney, spleen and blood (C. neoformans [7]): significant suppression of fungi dissemination to target organs
plasma IL-1β, IL-6, TNF-α and MCP-1 [8]: dose-dependent reductions in these inflammatory markers
eradication of preformed biofilms ([9]; 1 × MIC, 48 h preformed biofilm, crystal violet OD600): up to 65%
eradication of biofilms ([9]; sub-MIC levels): over 50%
DiSC3(5) fluorescence (membrane depolarization) (C. neoformans [10]): significant increase in fluorescence
tissue morphology, H&E staining (C. neoformans [11]): near-normal tissue morphology
antifungal activity after chymotrypsin exposure (C. neoformans [12]; 2 h with chymotrypsin (250:1) at 37 °C): maintained its activity
antifungal efficacy after trypsin exposure (C. neoformans [12]; 2 h with trypsin (250:1) at 37 °C): reduced antifungal efficacy
time to no fungal growth (C. neoformans BNCC225501; 5× the MIC, 1 × 10^5 CFU/mL, 37 °C, colony count): 120 min
time to kill fungi (C. neoformans BNCC225501; C. neoformans BNCC 225501, as worded in the discussion): within an hour
